From US20040224898A1, “Compositions and methods for promoting lipid mobilization in humans” (priority 2002, published 2004)
Bridges are numbered along the chain shown (N, C = ends). Where no end group is shown, it is not given here.

Assays:
Assay type in all cases: cell-based
human adipocytes [1] = test: Effect of propanolol on agent-induced glycerol release; settings: for Glycerol Release, No Agent (medium concentration in millimolar): propanolol alone
Description: (§1) Human pre-adipocytes were isolated by liposuction and maintained in AGM for three weeks in order to permit the pre-adipocytes to differentiate to become mature adipocytes. AGM was removed, and adipocytes were incubated in Krebs-Ringers buffer comprising 0.1% fatty acid-free BSA at 37° C. for five hours in the presence of selected concentrations (10^−9 to 10^−5 molar) of one of Schistocera gregaria AKH II, cockroach hypertrehalosemic factor (obtained from Sigma Chemical Co, St. Louis, Mo., catalog number P0175), and Locusta migratoria AKH I (obtained from American Peptide Co., Sunnyvale, Calif., catalog number 60-9-18). Glycerol released from the adipocytes was assayed using a commercially available kit (GPO-trinder assay kit available form Sigma Chemical Company, St. Louis, Mo.).
Glycerol release assays were performed as described in Example 2, except that the assays were performed using single selected concentrations of one of cockroach hypertrehalosemic factor, Locusta migratoria AKH I, and isoproterenol and multiple selected concentrations of propanolol.

human adipocytes [2] = test: Glycerol release assay; settings: for Lipid mobilizing activity: control hormones, Example 2; for Glycerol Release with Agent (medium concentration in millimolar): five hours, 37° C., Table 8 experiment
Description: as §1
A similar experiment was performed, in which glycerol release from adipocytes was assessed in the presence of the Locusta migratoria AKH I or the cockroach hypertrehalosemic factor or in the presence of isoproterenol.

human adipocytes [3] = test: Release of tritium label from radiolabeled palmitate (lipid mobilizing activity); settings: for % Tritium Label Release with Agent: 4 hours, 37° C., Table 5 experiment
Description: Lipid mobilizing activity was assessed by assaying release of tritium label from radiolabeled palmitate. This assay was performed by maintaining human pre-adipocytes in Adipocyte Growth Medium (AGM), which is Dulbecco's Modified Eagle's Medium (DMEM) mixed 1:1 by volume with Ham's F-10 medium. Ham's F-10 medium comprises 15 millimolar HEPES buffer adjusted to pH 7.4 and supplemented with biotin, pantothenate, human recombinant insulin, dexamethasone, fungicide, bactericide, and 3% (v/v) fetal bovine serum). Pre-adipocytes differentiated to become mature adipocytes by three weeks of maintenance in AGM. On the day prior to assay, the adipocytes were washed and incubated overnight in Krebs-Ringers buffer comprising 0.1% fatty acid-free bovine serum albumin (BSA) and comprising 1 microCurie per milliliter of tritiated (9,10-^3H) palmitate. The following day, the medium was removed, and the cells were washed three times […]. Isoproterenol (0 to 5×10^−8 molar), Schistocera gregaria AKH II (0 to 5×10^−5 molar), or Krebs-Ringer buffer (with 0.1% fatty acid-free BSA) containing neither of these was added to the cell suspension in a volume of 150 microliters. The suspensions were incubated for 4 hours at 37° C., and then 100 microliters of each sample was subjected to scintillation counting to detect released label in the supernatant. The total amount of label incorporated was determined for each well by solubilizing the cells using 1% sodium dodecyl sulfate and subjecting the entire contents of the well to scintillation counting. Fractional release of label was calculated by dividing the amount of label detected in cell supernatant by the total amount of label detected in the supernatant and in the cells remaining in the well, and percentage release was calculated by multiplying fractional release by 100.
A similar study was done using the same methods, except that cockroach hypertrehalosemic factor (0 to 5×10^−5 molar) was used in place of S. gregaria AKH II.
A similar tritium label release experiment performed using Heliothis zea AKH II and Locusta migratoria, except that a two-hour incubation period was used in place of a 4 hour incubation period.

CC(C)NCC(O)COc1cccc2ccccc12 (centres unmarked) [Propanolol, propanolol]
Inhibition by propanolol of glycerol release induced by isoproterenol (human adipocytes [1]; adipocytes): able to inhibit glycerol release | Glycerol Release, No Agent (medium concentration in millimolar) (human adipocytes [1]; 1 × 10^−5 molar): 0.0463 ± 0.0042 millimolar | Glycerol Release, No Agent (medium concentration in millimolar) (human adipocytes [1]; 1 × 10^−6 molar): 0.0417 ± .00072 millimolar | Glycerol Release, No Agent (medium concentration in millimolar) (human adipocytes [1]; 1 × 10^−7 molar): 0.0399 ± 0.0069 millimolar | Glycerol Release, No Agent (medium concentration in millimolar) (human adipocytes [1]; 1 × 10^−8 molar): 0.0399 ± 0.0083 millimolar

DFDMLRCMLGRVYRPCWQV (disulfide 7-16 (inferred); listed as Insect sp.) [melanocyte concentrating hormone, reference compound]
Lipid mobilizing activity (human adipocytes [2]): No lipid mobilizing activity could be detected

ELNFSTGW (listed as Schistocerca gregaria) [Schistocera gregaria AKH II, insect adipokinetic hormone of the desert locust]
% Tritium Label Release with Agent (human adipocytes [3]; agent 1 × 10^−5 molar): 14.28% | % Tritium Label Release with Agent (human adipocytes [3]; agent 1 × 10^−6 molar): 13.38% | % Tritium Label Release with Agent (human adipocytes [3]; agent 1 × 10^−7 molar): 10.76% | % Tritium Label Release with Agent (human adipocytes [3]; agent 1 × 10^−8 molar): 10.76% | % Tritium Label Release with Agent (human adipocytes [3]; agent 1 × 10^−9 molar): 9.6% | % Tritium Label Release with Agent (human adipocytes [3]; agent 1 × 10^−10 molar): 10.74% | % Tritium Label Release with Agent (human adipocytes [3]; agent 5 × 10^−5 molar): 16.65% | % Tritium Label Release with Agent (human adipocytes [3]; agent 5 × 10^−6 molar): 14.94% | % Tritium Label Release with Agent (human adipocytes [3]; agent 5 × 10^−7 molar): 11.31% | Ability to mobilize lipids in adipocytes (human adipocytes [3]; conclusion of Example 1, murine adipocytes): able to mobilize lipids | Glycerol Release with Agent (medium concentration in millimolar) (human adipocytes [2]; agent 1 × 10^−5 molar): 0.693 millimolar | Glycerol Release with Agent (medium concentration in millimolar) (human adipocytes [2]; agent 1 × 10^−6 molar): 0.628 millimolar | Glycerol Release with Agent (medium concentration in millimolar) (human adipocytes [2]; agent 1 × 10^−7 molar): 0.530 millimolar | Glycerol Release with Agent (medium concentration in millimolar) (human adipocytes [2]; agent 1 × 10^−8 molar): 0.523 millimolar | Glycerol Release with Agent (medium concentration in millimolar) (human adipocytes [2]; agent 1 × 10^−9 molar): 0.486 millimolar | Ability to promote lipid mobilization in human adipocytes (human adipocytes [2]; conclusion of Example 2): able to promote lipid mobilization

SYSMEHFRWGKPV (Ac-SYSMEHFRWGKPV-NH2; listed as Insect sp.) [alpha-melanocyte stimulating hormone, reference compound]
Lipid mobilizing activity (human adipocytes [2]): No lipid mobilizing activity could be detected
